The values below come from patent US20060211703A1, “Substituted alkyl-pyridazinones for the treatment of memory and learning malfunctions” (priority 2003, published 2006).

The structures appear in SMILES notation. “Also recorded” adds a separate entry of the source.

The subject of one test is Male Wistar rats. Briefly: step through-type passive avoidance learning test. The format is in vivo, rat. The following applies: 30 min before test, FIG. 1. The procedure: Male Wistar rats weighing 200-220 g were used. The animals were obtained from Charles River Co. They were kept in a room with normal 12-12 h light dark cycle (light on: 06:00) at relative humidity of 60±10%.
The experiment was performed in a five-channel “step through”-type passive avoidance learning apparatus. The equipment consisted of to adjacent Plexi-glass box of 20×20×16 cm. One of them was made of regular transparent Plexi-glass and the other one was made of black, non-transparent Plexi-glass. The boxes were connected with a 7.5×8 cm passageway, equipped with a computer-controlled guillotine-door. The passage of the rats through the door was detected by infrared photocells arranged in two parallel lines in the opening of the passageway. The door was automatically closed when the animals passed through. The dark compartment was equipped with stainless steel grid floor through which electric foot shocks could have been delivered to the animals. […]
The individually numbered animals were placed into the light compartment of the equipment. […] Step through latency was automatically determined. […]
After 24 h the animals were placed again in the light compartment of the test apparatus and step-through latency was measured as described at Acquisition day, except that no foot shock was applied to the animals in any group on the second day. […]

The conditions of test [1]: known anxiolytic compounds, comparison statement; cited from earlier work.

Regarding `O=c1cc(NCCN2CCN(c3cccc4c3OCCO4)CC2)cn[nH]1` [compound A, 5-[2-[4-(2,3-dihydro-benzo[1,4]dioxine-5-yl)-piperazine-1-yl]-ethylamine]-2H-pyridazine-3-one], in the test with Male Wistar rats (1 mg/kg ip. at Day 1 (Acquisition), latency measured at Day 2, vs shocked vehicle control), the “step-through latency into the dark compartment (effect on acquisition / learning)” value is on record as “significantly increased; also recorded: further increased”. Also, in the test on Male Wistar rats (1 mg/kg ip. at Day 2 (Retention), vs shocked vehicle control), the “step-through latency into the dark compartment (effect on recall / long term memory)” value is recorded as “significantly increased”.

Turning to `CN1C(=O)CN=C(c2ccccc2)c2cc(Cl)ccc21` [diazepam], the effect on memory entry in test [1] is recorded as “deleterious”.
